# Laboratory results reported in ChEMBL document CHEMBL1139047, “Design and synthesis of a novel class of furan-based molecules as potential 20S proteasome inhibitors” (Bioorg Med Chem Lett, 2007).
# Columns and labels:
# [1] = Inhibition of chymotrypsin-like activity of 20S proteasome; format: subcellular, Homo sapiens
# [2] = Inhibition of peptidyl-glutamyl peptide hydrolase activity of 20S proteasome; format: subcellular, Homo sapiens
# HL-60 = experiment: Antiproliferative activity against human HL60 cells; format: functional, cell-based
# HepG2 = experiment: Antiproliferative activity against human HepG2 cells; format: functional, cell-based
# [3] = Inhibition of trypsin-like activity of 20S proteasome; format: subcellular, Homo sapiens
IC50 [1] [µM],Structure (SMILES),further results
> 100,CC[C@@H](C)[C@H](NC(=O)[C@H](NCc1ccccc1)[C@H](O)[C@H](Cc1ccccc1)NC(=O)OC(C)(C)C)C(=O)c1ccco1,
> 100,CC[C@H](C)[C@H](NC(=O)[C@@H](NC(=O)[C@H](Cc1ccccc1)NC(=O)OC(C)(C)C)C(C)C)C(=O)c1ccco1,
> 100,CC[C@@H](C)[C@H](NC(=O)[C@H](Nc1ccccc1)[C@H](O)[C@H](Cc1ccccc1)NC(=O)OC(C)(C)C)C(=O)c1ccco1,
7.85,CC(C)C[C@H](NC(=O)[C@H](Cc1ccccc1)NC(=O)[C@H](Cc1ccccc1)NC(=O)OC(C)(C)C)C(=O)c1ccco1,IC50 [2]: > 100 µM; IC50 (HL-60): 37.1 µM; IC50 (HepG2): 34.2 µM; IC50 [3]: > 100 µM
> 100,CC(C)[C@H](NC(=O)[C@H](Nc1ccccc1)[C@H](O)[C@H](Cc1ccccc1)NC(=O)OC(C)(C)C)C(=O)c1ccco1,
> 100,CC(C)[C@H](NC(=O)[C@H](Cc1ccccc1)NC(=O)[C@H](Cc1ccccc1)NC(=O)OC(C)(C)C)C(=O)c1ccco1,
> 100,CC(C)C[C@H](NC(=O)[C@@H](NC(=O)[C@H](Cc1ccccc1)NC(=O)OC(C)(C)C)C(C)C)C(=O)c1ccco1,
> 100,CC(C)[C@H](NC(=O)[C@H](Cc1ccccc1)NC(=O)OC(C)(C)C)C(=O)N[C@H](C(=O)c1ccco1)C(C)C,
> 100,CC(C)C[C@H](NC(=O)[C@H](Cc1ccccc1)NC(=O)OC(C)(C)C)C(=O)N[C@@H](CC(C)C)C(=O)c1ccco1,
> 100,CC[C@H](C)[C@H](NC(=O)[C@H](CC(C)C)NC(=O)[C@H](Cc1ccccc1)NC(=O)OC(C)(C)C)C(=O)c1ccco1,
> 100,CC(C)C[C@H](NC(=O)[C@H](NCc1ccccc1)[C@H](O)[C@H](Cc1ccccc1)NC(=O)OC(C)(C)C)C(=O)c1ccco1,
> 100,CC[C@H](C)[C@H](NC(=O)[C@H](Cc1ccccc1)NC(=O)[C@H](Cc1ccccc1)NC(=O)OC(C)(C)C)C(=O)c1ccco1,
> 100,CC(C)[C@H](NC(=O)[C@H](NCc1ccccc1)[C@H](O)[C@H](Cc1ccccc1)NC(=O)OC(C)(C)C)C(=O)c1ccco1,
> 100,CC(C)C[C@H](NC(=O)[C@H](Nc1ccccc1)[C@H](O)[C@H](Cc1ccccc1)NC(=O)OC(C)(C)C)C(=O)c1ccco1,
> 100,CC(C)C[C@H](NC(=O)[C@H](Cc1ccccc1)NC(=O)OC(C)(C)C)C(=O)N[C@H](C(=O)c1ccco1)C(C)C,
